From patent US8859559B2, “Substituted pyrazines and their use in the treatment of disease” (Boehringer Ingelheim International GmbH, priority 2011, dated 2014) come the findings set out here.

Molecules are shown by their SMILES.

The test concerns the target T1, ENaC (Epithelial Sodium Channel) (Mus musculus, UniProt Q61180+Q9WU38+Q9WU39).
T1 construct: Mouse kidney M-1 cells were cultivated in DMEM; endogenous in cells; host or cells: Mouse kidney M-1 cells (dexamethasone-treated, on transwell filters)
T1 sequence (Q61180 1-699): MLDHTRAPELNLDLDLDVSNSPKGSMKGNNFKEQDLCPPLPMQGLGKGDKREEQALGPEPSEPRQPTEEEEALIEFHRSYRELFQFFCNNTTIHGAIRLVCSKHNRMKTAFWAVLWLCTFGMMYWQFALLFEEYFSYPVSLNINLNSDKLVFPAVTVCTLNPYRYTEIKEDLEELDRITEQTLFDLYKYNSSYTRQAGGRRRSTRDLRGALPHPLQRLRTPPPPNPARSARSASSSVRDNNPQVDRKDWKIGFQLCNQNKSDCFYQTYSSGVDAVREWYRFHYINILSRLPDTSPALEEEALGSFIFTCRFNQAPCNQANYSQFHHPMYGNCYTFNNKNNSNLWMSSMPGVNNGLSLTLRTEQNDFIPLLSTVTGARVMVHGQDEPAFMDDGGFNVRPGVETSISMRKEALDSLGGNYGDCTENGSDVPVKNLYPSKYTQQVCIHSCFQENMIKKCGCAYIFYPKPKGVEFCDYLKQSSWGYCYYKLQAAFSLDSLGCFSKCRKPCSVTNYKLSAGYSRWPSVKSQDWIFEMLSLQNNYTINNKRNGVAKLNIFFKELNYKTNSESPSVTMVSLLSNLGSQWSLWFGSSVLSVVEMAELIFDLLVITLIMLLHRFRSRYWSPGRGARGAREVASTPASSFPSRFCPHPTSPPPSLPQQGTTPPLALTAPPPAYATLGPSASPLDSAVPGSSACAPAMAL
T1 sequence (Q9WU38 1-638): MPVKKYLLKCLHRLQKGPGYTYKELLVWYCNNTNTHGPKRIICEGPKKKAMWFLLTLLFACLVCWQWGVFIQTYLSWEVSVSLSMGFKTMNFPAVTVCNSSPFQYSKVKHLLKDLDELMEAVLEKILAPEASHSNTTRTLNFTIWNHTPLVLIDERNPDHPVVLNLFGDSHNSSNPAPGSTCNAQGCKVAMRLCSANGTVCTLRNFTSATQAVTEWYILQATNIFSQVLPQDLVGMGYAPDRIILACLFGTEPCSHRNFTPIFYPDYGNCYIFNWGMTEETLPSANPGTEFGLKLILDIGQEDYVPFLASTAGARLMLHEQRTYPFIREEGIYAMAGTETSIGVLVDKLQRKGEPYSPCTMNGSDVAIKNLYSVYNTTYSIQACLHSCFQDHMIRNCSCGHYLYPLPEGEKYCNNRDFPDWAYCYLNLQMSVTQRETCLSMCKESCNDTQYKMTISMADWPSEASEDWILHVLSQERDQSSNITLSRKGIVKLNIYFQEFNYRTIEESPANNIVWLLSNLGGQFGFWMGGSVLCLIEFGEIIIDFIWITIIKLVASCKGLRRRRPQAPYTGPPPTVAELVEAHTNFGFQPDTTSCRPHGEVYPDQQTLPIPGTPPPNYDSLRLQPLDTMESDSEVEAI
T1 sequence (Q9WU39 1-655): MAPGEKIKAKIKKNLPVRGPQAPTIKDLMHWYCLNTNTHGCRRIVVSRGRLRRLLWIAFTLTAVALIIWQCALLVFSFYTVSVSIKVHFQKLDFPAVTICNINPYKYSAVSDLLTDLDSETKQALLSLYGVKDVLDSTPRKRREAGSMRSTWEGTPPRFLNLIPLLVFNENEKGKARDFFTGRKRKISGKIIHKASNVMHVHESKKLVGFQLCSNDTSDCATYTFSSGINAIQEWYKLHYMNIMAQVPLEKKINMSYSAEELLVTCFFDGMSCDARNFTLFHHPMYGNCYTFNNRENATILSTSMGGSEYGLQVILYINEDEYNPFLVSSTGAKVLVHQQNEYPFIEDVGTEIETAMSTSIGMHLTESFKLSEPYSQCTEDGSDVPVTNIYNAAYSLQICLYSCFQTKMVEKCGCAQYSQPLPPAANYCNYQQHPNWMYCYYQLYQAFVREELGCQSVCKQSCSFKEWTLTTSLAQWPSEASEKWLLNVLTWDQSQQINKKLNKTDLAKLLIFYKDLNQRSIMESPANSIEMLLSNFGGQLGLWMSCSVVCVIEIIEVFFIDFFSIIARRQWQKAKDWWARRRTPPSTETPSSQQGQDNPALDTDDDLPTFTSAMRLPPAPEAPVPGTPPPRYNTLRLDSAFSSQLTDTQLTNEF
The test can be described thus: Ussing chamber: inhibition of amiloride sensitive short circuit current (I_sc) in M-1 cells. The class given is cell-based. The following applies: mouse kidney M-1 cells. The protocol:
Mouse kidney M-1 cells were cultivated in DMEM containing 5% FCS and 5 μM dexamethasone for 10 to 12 days on polyester transwell filters. Filters were inserted into a teflon-coated well-plate which fit into the in-house ussing chamber system. Prior to measurement the medium of M-1 cells was replaced with Caco-2 transport buffer (Invitrogen, Germany). During measurements, the Ussing chamber temperature was kept at 37° C. Short circuit currents (I_sc) were measured in the voltage-clamp mode using an in-house built amplifier (Boehringer Ingelheim, Biberach) with the software package Lab View for data acquisition and analysis. The transepithelial electrical resistance (TEER) was determined by the application of voltage steps of ±5 mV every 5 sec. Compounds were administered at a final concentration of 3 μM or at increasing concentrations (1-3-10 μM) to the apical solution. At the end of each experiment the amiloride sensitive I_SC was measured by adding 3 μM amiloride to the apical compartment. Results are expressed as inhibition in percent of the amiloride effect or as IC50. With the example compounds given above, the following IC50 values were determined in the Ussing Chamber assay: […]
For `NC(=NC(=O)c1nc(Cl)c(N)nc1N)NC1CCN(Cc2ccc(C(=O)NCCS(=O)(=O)O)cc2)CC1` [Example 2.4], it took 35 nM to reach half-maximal inhibition (IC50). The same measure for `N=C(N)c1ccc(CN2CCC(NC(N)=NC(=O)c3nc(Cl)c(N)nc3N)CC2)cc1` [Example 1.55]: 2 nM; for `COC(=O)c1ccc(CN2CCC(N/C(N)=N/C(=O)c3nc(Cl)c(N)nc3N)CC2)cc1` [Example 1.29]: 2 nM; for `NC(=NC(=O)c1nc(Cl)c(N)nc1N)NC1CCN(Cc2ccc(C(=O)OCCCCc3cn(CCOCCOCCOCCO)nn3)cc2)CC1` [Example 3.42]: 10 nM.

Consider `N/C(=N\C(=O)c1nc(Cl)c(N)nc1N)NC1CCN(Cc2ccc(B(O)O)cc2)CC1` [Example 1.15], for which it took 7 nM to reach half-maximal inhibition (IC50). For `NC(=NC(=O)c1nc(Cl)c(N)nc1N)NC1CCN(Cc2cccc(-c3cn(CCOCCOCCOCCNC(=O)c4cc(OCCOCCOCCO)cc(OCCOCCOCCO)c4)nn3)c2)CC1` [Example 5.10], it took 31 nM to reach half-maximal inhibition (IC50). Compared with the last compound, the IC50 is about 4.4-fold higher. The same measure for `NC(=NC(=O)c1nc(Cl)c(N)nc1N)NC1CCN(Cc2ccc(OCc3cn(CCOCCOCCO)nn3)cc2)CC1` [Example 3.24]: 25 nM; for `NC(=NC(=O)c1nc(Cl)c(N)nc1N)NC1CCN(Cc2ccc(CCn3cc(COc4cccc(C(=O)NCCOCCO)c4)nn3)cc2)CC1` [Example 3.3]: 24 nM. To `COC(=O)Cc1ccc(CN2CCC(NC(N)=NC(=O)c3nc(Cl)c(N)nc3N)CC2)cc1` [Example 1.38] belongs 8 nM; to `NC(=NC(=O)c1nc(Cl)c(N)nc1N)N[C@H]1CCCN(Cc2ccc(C(=O)O)cc2)C1` [Example 1.60], 165 nM. The same measure for `CN(Cc1cn(-c2ccc(CN3CCC(NC(N)=NC(=O)c4nc(Cl)c(N)nc4N)CC3)cc2)nn1)C(=O)CCNCCOCCOCCOCCOC(c1ccccc1)(c1ccccc1)c1ccccc1` [Example 3.20]: 1 nM; for `NC(=NC(=O)c1nc(Cl)c(N)nc1N)NC1CCN(Cc2cccc(-c3cn(CCOCCOCCOCCO)nn3)c2)CC1` [Example 3.36]: 4 nM.

`COC(=O)Cc1cccc(CN2CCC(NC(N)=NC(=O)c3nc(Cl)c(N)nc3N)CC2)c1` [Example 1.6] came in with an IC50 of 4 nM. This counts as single-digit nanomolar.

`CN(Cc1cn(-c2ccc(CN3CCC(NC(N)=NC(=O)c4nc(Cl)c(N)nc4N)CC3)cc2)nn1)C(=O)CCN` [Example 4.2] came in with a half-maximal inhibitory concentration (IC50) of 4 nM. This counts as single-digit nanomolar.

`CCOP(=O)(OCC)c1ccc(CN2CCC(NC(N)=NC(=O)c3nc(Cl)c(N)nc3N)CC2)cc1` [Example 1.13] registered an IC50 of 5 nM.

For `NC(=NC(=O)c1nc(Cl)c(N)nc1N)NC1CC2CCC(C1)N2Cc1ccccc1` (single isomer, unassigned) [Example 1.28], the IC50 was found to be 16 nM. The same measure for `[N-]=[N+]=NCCOCCOCCOCCn1cc(COc2ccc(CN3CCC(NC(N)=NC(=O)c4nc(Cl)c(N)nc4N)CC3)cc2)nn1` [Example 3.22]: 2 nM.

Turning to `N#Cc1ccc(CN2CCC(N/C(N)=N/C(=O)c3nc(Cl)c(N)nc3N)CC2)cc1` [Example 1.40], the midpoint of inhibition, the IC50, lay at 2 nM. In other words, the single-digit nanomolar range. The same measure for `NCCOCCOCCNC(=O)c1ccc(CN2CCC(NC(N)=NC(=O)c3nc(Cl)c(N)nc3N)CC2)cc1` [Example 1.47]: 3 nM; for `NC(=NC(=O)c1nc(Cl)c(N)nc1N)NC1CCN(Cc2ccc(-c3cn(CCOCCOCCOCCNCCOCCOCCO)nn3)cc2)CC1` [Example 3.35]: 4 nM. To `N/C(=N\C(=O)c1nc(Cl)c(N)nc1N)NC1CCN(Cc2ccc(CP(=O)(O)O)cc2)CC1` [Example 7.1] belongs 477 nM. To `COCCOc1ccc(CCc2ccc(CN3CCC(NC(N)=NC(=O)c4nc(Cl)c(N)nc4N)CC3)cc2)nn1` [Example 1.58] belongs 7 nM; to `CC(=O)N1CCN(C(=O)CCc2cn(CCc3ccc(CN4CCC(NC(N)=NC(=O)c5nc(Cl)c(N)nc5N)CC4)cc3)nn2)CC1` [Example 3.44], 16 nM; to `NC(=NC(=O)c1nc(Cl)c(N)nc1N)NC1CCN(Cc2cc(C(=O)O)cc(C(=O)NCCOCCO)c2)CC1` [Example 8.6], 53 nM. Take `N/C(=N\C(=O)c1nc(Cl)c(N)nc1N)NC1CCN(Cc2ccc(O)cc2)CC1` [Example 1.31]: half-maximal inhibition (IC50) was put at 7 nM. The same measure for `COCCOc1ccc(C(=O)NCCOCCOCCNC(=O)c2ccc(CN3CCC(NC(N)=NC(=O)c4nc(Cl)c(N)nc4N)CC3)cc2)cc1` [Example 1.49]: 6 nM; for `NC(=NC(=O)c1nc(Cl)c(N)nc1N)NC1CCN(Cc2ccc(CCC(=O)O)cc2)CC1` [Example 8.14]: 30 nM; for `N/C(=N\C(=O)c1nc(Cl)c(N)nc1N)NC1CCN(Cc2ccc(C(=O)NCCOCCO)cc2)CC1` [Example 1.54]: 4 nM. To `N/C(=N\C(=O)c1nc(Cl)c(N)nc1N)NC1CCN(Cc2ccc(C(=O)O)cc2)CC1` [Example 1.51] belongs 23 nM; to `COC(=O)c1ccc(CN2CCC(C)(NC(N)=NC(=O)c3nc(Cl)c(N)nc3N)CC2)cc1` [Example 1.17], 66 nM; to `COC(=O)COc1ccc(CN2CC[C@H](NC(N)=NC(=O)c3nc(Cl)c(N)nc3N)C2)cc1` [Example 1.42], 59 nM. In turn, `CN(Cc1cn(CCc2ccc(CN3CCC(NC(N)=NC(=O)c4nc(Cl)c(N)nc4N)CC3)cc2)nn1)C(=O)CCNC(=O)OC(C)(C)C` [Example 3.5] yielded an IC50 of 7 nM. To `CC(C)(C)[Si](C)(C)OCCN(CCO[Si](C)(C)C(C)(C)C)C(=O)c1ccc(=O)n(CCc2cn(-c3ccc(CN4CCC(NC(N)=NC(=O)c5nc(Cl)c(N)nc5N)CC4)cc3)nn2)c1` [Example 3.17] belongs 3 nM; to `NC(=NC(=O)c1nc(Cl)c(N)nc1N)NC1CCN(Cc2ccc(CCn3cc(COCCO)nn3)cc2)CC1` [Example 3.2], 10 nM; to `NC(=NC(=O)c1nc(Cl)c(N)nc1N)NC1CCN(Cc2ccc(Cn3cc(C(=O)O)ccc3=O)cc2)CC1` [Example 8.12], 39 nM.

`NC(=NC(=O)c1nc(Cl)c(N)nc1N)NC1CCN(Cc2ccc(-c3cn(CCOCCOCCOCCOCCOCCOCCOCCO)nn3)cc2)CC1` [Example 3.29] showed an IC50 of 12 nM.

As to `N/C(=N\C(=O)c1nc(Cl)c(N)nc1N)NC1CCN(Cc2ccc(OCc3cn(CCOCCOCCOCCOCCOCCO)nn3)cc2)CC1` [Example 5.1], the IC50 amounted to 42 nM. The same measure for `COc1cc(C(=O)O)ccc1CN1CCC(NC(N)=NC(=O)c2nc(Cl)c(N)nc2N)CC1` [Example 8.9]: 74 nM.

As usually defined, the IC50 is the midpoint of a concentration-inhibition curve. Lower therefore signals greater potency.
